Measured values taken from EPA's CvTdb concentration-time database.

Tests used:
Rat [1] = experiment: concentration in plasma after dosing; conditions: dosed: Wyeth-14643, 5.0 mg/kg, oral, Male, Sprague-Dawley
Rat [2] = experiment: concentration in plasma after dosing; conditions: 1 h; dosed: Wyeth-14643; 2.0 mg/kg; iv; Male; Sprague-Dawley
Rat [3] = experiment: concentration in liver after dosing; conditions: 20 min; dosed: Bis 2-Chloroethoxy Methane; 20 mg/kg; iv; Female; F344
Rat [4] = experiment: concentration in heart after dosing; conditions: 4 h; dosed: Bis 2-Chloroethoxy Methane; 20 mg/kg; iv; Male; F344
Rat [5] = experiment: concentration in thymus after dosing; conditions: 20 min; dosed: Bis 2-Chloroethoxy Methane; 20 mg/kg; iv; Female; F344
Rat [6] = experiment: concentration in liver after dosing; conditions: 20 min; dosed: Bis 2-Chloroethoxy Methane; 20 mg/kg; iv; Male; F344
Rat [7] = experiment: concentration in plasma after dosing; conditions: 40 min; dosed: Bis 2-Chloroethoxy Methane; 20 mg/kg; iv; Female; F344
Rat [8] = experiment: concentration in heart after dosing; conditions: 40 min; dosed: Bis 2-Chloroethoxy Methane; 20 mg/kg; iv; Female; F344
Rat [9] = experiment: concentration in plasma after dosing; conditions: dosed: Bis 2-Chloroethoxy Methane, 40 mg/kg, iv, Male, Harlan Sprague Dawley
Rat [10] = experiment: concentration in plasma after dosing; conditions: 2 h; dosed: Bis 2-Chloroethoxy Methane; 20 mg/kg; iv; Male; F344
Rat [11] = experiment: concentration in liver after dosing; conditions: 1 h; dosed: Fluorotelomer alcohol 8+2; 24 mg/kg; oral; Male; Harlan Sprague Dawley
Rat [12] = experiment: concentration in plasma after dosing; conditions: 3 h; dosed: Fluorotelomer alcohol 8+2; 12 mg/kg; iv; Male; F344
Rat [13] = experiment: concentration in liver after dosing; conditions: 3 h; dosed: Fluorotelomer alcohol 8+2; 24 mg/kg; oral; Male; Harlan Sprague Dawley
Rat [14] = experiment: concentration in plasma after dosing; conditions: dosed: Fluorotelomer alcohol 8+2, 12 mg/kg, iv, Male, F344
Rat [15] = experiment: concentration in plasma after dosing; conditions: dosed: Fluorotelomer alcohol 8+2, 12 mg/kg, oral, Male, Harlan Sprague Dawley
Rat [16] = experiment: concentration in plasma after dosing; conditions: 5 min; dosed: Di-n-butyl phthalate; 100 mg/kg; oral; Male; Sprague-Dawley
Rat [17] = experiment: concentration in plasma after dosing; conditions: 5 min; dosed: Di-n-butyl phthalate; 50 mg/kg; oral; Male; Sprague-Dawley
Rat [18] = experiment: concentration in plasma after dosing; conditions: 10 h; dosed: Di-n-butyl phthalate; 100 mg/kg; oral; Male; Sprague-Dawley
Rat [19] = experiment: concentration in plasma after dosing; conditions: 20 h; dosed: Di-n-butyl phthalate; 200 mg/kg; oral; Male; Sprague-Dawley
Rat [20] = experiment: concentration in kidney after dosing; conditions: 1 h; dosed: Perfluorodecanoic acid; 10 mg/kg; oral; Male; Harlan Sprague Dawley
Rat [21] = experiment: concentration in kidney after dosing; conditions: 3360 h; dosed: Perfluorodecanoic acid; 10 mg/kg; oral; Male; Harlan Sprague Dawley
Rat [22] = experiment: concentration in brain after dosing; conditions: 24 h; dosed: Perfluorodecanoic acid; 10 mg/kg; oral; Female; Harlan Sprague Dawley
Rat [23] = experiment: concentration in plasma after dosing; conditions: dosed: Perfluorodecanoic acid, 2 mg/kg, iv, Male, F344
Rat [24] = experiment: concentration in plasma after dosing; conditions: dosed: Perfluorodecanoic acid, 2 mg/kg, oral, Male, Harlan Sprague Dawley
Rat [25] = experiment: concentration in plasma after dosing; conditions: 3 h; dosed: Primidone; 130 mg/kg; oral; Male; Harlan Sprague Dawley
Rat [26] = experiment: concentration in heart after dosing; conditions: 2 h; dosed: Thiodiglycolic Acid; 20 mg/kg; iv; Female; Harlan Sprague Dawley
Rat [27] = experiment: concentration in heart after dosing; conditions: 1 h; dosed: Thiodiglycolic Acid; 20 mg/kg; iv; Male; Harlan Sprague Dawley
Rat [28] = experiment: concentration in liver after dosing; conditions: 5.333 h; dosed: Thiodiglycolic Acid; 20 mg/kg; iv; Male; Harlan Sprague Dawley
Rat [29] = experiment: concentration in heart after dosing; conditions: 5.333 h; dosed: Thiodiglycolic Acid; 20 mg/kg; iv; Male; Harlan Sprague Dawley
Rat [30] = experiment: concentration in thymus after dosing; conditions: 1 h; dosed: Thiodiglycolic Acid; 20 mg/kg; iv; Male; Harlan Sprague Dawley
Rat [31] = experiment: concentration in thymus after dosing; conditions: 6.667 h; dosed: Thiodiglycolic Acid; 20 mg/kg; iv; Female; Harlan Sprague Dawley
Rat [32] = experiment: concentration in heart after dosing; conditions: 4 h; dosed: Thiodiglycolic Acid; 20 mg/kg; iv; Female; Harlan Sprague Dawley
Rat [33] = experiment: concentration in heart after dosing; conditions: 2 h; dosed: Thiodiglycolic Acid; 20 mg/kg; iv; Male; Harlan Sprague Dawley
Rat [34] = experiment: concentration in heart after dosing; conditions: 10 min; dosed: Thiodiglycolic Acid; 20 mg/kg; iv; Male; F344
Rat [35] = experiment: concentration in plasma after dosing; conditions: 10 min; dosed: Thiodiglycolic Acid; 20 mg/kg; iv; Male; F344
Rat [36] = experiment: concentration in liver after dosing; conditions: 40 min; dosed: Thiodiglycolic Acid; 20 mg/kg; iv; Female; Harlan Sprague Dawley
Rat [37] = experiment: concentration in heart after dosing; conditions: 8 h; dosed: Thiodiglycolic Acid; 20 mg/kg; iv; Female; Harlan Sprague Dawley
Rat [38] = experiment: concentration in plasma after dosing; conditions: dosed: dichloroacetic acid, 60 mg/kg, iv, Female, Harlan Sprague-Dawley
Rat [39] = experiment: concentration in plasma after dosing; conditions: dosed: dichloroacetic acid, 10 mg/kg, oral, Male, Harlan Sprague Dawley

For `Cc1cccc(Nc2cc(Cl)nc(SCC(=O)O)n2)c1C`, the concentration in plasma (Rat [1]; 2 h) was 3450 ng/mL, the concentration in plasma (Rat [1]; 6 h) was 742 ng/mL and the concentration in plasma (Rat [2]) was 2190 ng/mL.

Work on `ClCCOCOCCCl` [Bis 2-Chloroethoxy Methane] yielded a concentration in liver (Rat [3]) of 1090 ng/g, a concentration in heart (Rat [4]) of 112 ng/g and a concentration in thymus (Rat [5]) of 26100 ng/g. It also gave a concentration in liver (Rat [6]) of 3690 ng/g, a concentration in plasma (Rat [7]) of 1410 ng/mL and a concentration in heart (Rat [8]) of 5350 ng/g. The concentration in plasma (Rat [9]; 1 h) was 4820 ng/mL, the concentration in plasma (Rat [9]; 9.667 h) was 15.4 ng/mL and the concentration in plasma (Rat [10]) was 282 ng/mL.

With `OCCC(F)(F)C(F)(F)C(F)(F)C(F)(F)C(F)(F)C(F)(F)C(F)(F)C(F)(F)F` [Fluorotelomer alcohol 8+2] the concentration in liver (Rat [11]) was 4670 ng/g, the concentration in plasma (Rat [12]) was 106 ng/mL and the concentration in liver (Rat [13]) was 2220 ng/g. For the same molecule, the concentration in plasma (Rat [14]; 0.75 h) was 818 ng/mL, the concentration in plasma (Rat [14]; 12 h) was 14.2 ng/mL and the concentration in plasma (Rat [15]; 0.75 h) was 294 ng/mL. For the same molecule, the concentration in plasma (Rat [15]; 12 h) was 4.64 ng/mL.

Molecule `CCCCOC(=O)c1ccccc1C(=O)O` [Mono-n-butyl phthalate] has a concentration in plasma (Rat [16]) of 1430 ng/mL, a concentration in plasma (Rat [17]) of 2400 ng/mL and a concentration in plasma (Rat [18]) of 1170 ng/mL. It also gave a concentration in plasma (Rat [19]) of 1870 ng/mL.

`O=C(O)C(F)(F)C(F)(F)C(F)(F)C(F)(F)C(F)(F)C(F)(F)C(F)(F)C(F)(F)C(F)(F)F` [Perfluorodecanoic acid] gave a concentration in kidney (Rat [20]) of 8630 ng/g, a concentration in kidney (Rat [21]) of 866 ng/g and a concentration in brain (Rat [22]) of 2560 ng/g. For the same molecule, the concentration in plasma (Rat [23]; 5 min) was 7130 ng/mL, the concentration in plasma (Rat [23]; 192 h) was 3040 ng/mL and the concentration in plasma (Rat [24]; 12 h) was 7480 ng/mL. The concentration in plasma (Rat [24]; 1200 h) was 1470 ng/mL.

`CCC1(c2ccccc2)C(=O)NC(=O)NC1=O` [Phenobarbital] gave a concentration in plasma (Rat [25]) of 1210 ng/mL.

Molecule `O=C(O)CSCC(=O)O` [Thiodiglycolic Acid] has a concentration in heart (Rat [26]) of 1640 ng/g, a concentration in heart (Rat [27]) of 1930 ng/g and a concentration in liver (Rat [28]) of 22900 ng/g. It also gave a concentration in heart (Rat [29]) of 383 ng/g, a concentration in thymus (Rat [30]) of 2310 ng/g and a concentration in thymus (Rat [31]) of 245 ng/g. The concentration in heart (Rat [32]) was 348 ng/g, the concentration in heart (Rat [33]) was 1440 ng/g and the concentration in heart (Rat [34]) was 8260 ng/g. The concentration in plasma (Rat [35]) was 25400 ng/mL, the concentration in liver (Rat [36]) was 92500 ng/g and the concentration in heart (Rat [37]) was 393 ng/g.

Work on `O=C(O)C(Cl)Cl` [dichloroacetic acid] yielded a concentration in plasma (Rat [38]; 1 h) of 16800 ng/mL, a concentration in plasma (Rat [38]; 2 h) of 1340 ng/mL and a concentration in plasma (Rat [39]; 2 min) of 405 ng/mL. It also gave a concentration in plasma (Rat [39]; 0.5 h) of 274 ng/mL.
